We go through two molecules from patent US20180282415A1, “Combination of a PD-1 Axis Binding Antagonist and an ALK Inhibitor for Treating ALK-Negative Cancer” (Merck Patent GmbH, priority 2015, published 2018).

The subject of series [1] is CD3/CD28-stimulated effector cells (T cells from healthy donors' PBMCs). The experiment in a line: T cell proliferation assay (3H thymidine incorporation), CD3/CD28-stimulated T cells. It is filed as cell-based, human. As to conditions: for Thymidine incorporation(CPM): log[Agonist]. From the text: (§1) Briefly, human cells were isolated from healthy donors' PBMCs by using EasySep™ Human T Cell Enrichment Kit (Stemcell Technologies) according to manufacturer's instruction. […] Culture supernatants were collected on Day 2 or 3 for cytokine analysis. Plates were then harvested on DNA specific filter papers (Perkin Elmer) using Harvester96 (Tomtec Life Sciences). The radiolabeled filters were covered with beta scintillation liquid (Perkin Elmer) and read in Microbeta® counter plates (Perkin Elmer). ^3H Thymidine was pulsed on Day 2 for T cell proliferation assay.
(In general: Incorporation of labelled thymidine or its analogues reports DNA synthesis.)

Series [2] relates to activated T cells. Briefly: T cell viability, Cell-Titer Glo Luminescent Cell Viability Assay. As to conditions: for Luciferase RLU (T cell viability): log[Agonist]. It is filed as cell-based, human. On the procedure:
as §1, with “instruction. […] Cells were cultured in RPMI 1640 medium supplemented with 10% FCS and 100 I.U./mL penicillin/streptomycin in humidified incubator at 37° C. with 5% CO2.” for “instruction.”, “assay. The impact by sunitinib and axitinib on T cell proliferation and viability were repeated as previously published (FIGS. 1A and 1B).” for “assay.”
Cell viability was measured by Cell-Titer Glo Luminescent Cell Viability Assay® (Promega, Madison). […] Table 4 below provides the Luciferase RLU values reflecting T cell viability for each of the respective inhibitors.

Series [3] relates to peripheral blood mononuclear cells (PMBCs). The conditions noted are these: published studies (Stehle et al. 2013); cited from earlier work.
Series [4] relates to B16 skin melanoma. The experiment in a line: In vivo tumor efficacy, B16 melanoma model, PF-06463922 with anti-PD-L1 (Example 2). More on the design: species or system C57BL/6 mice. As to conditions: end of study (day 22 post tumor implant), n=10. Here is the method: (§2) The CT26 colon carcinoma cell line was purchased from ATCC® CRL-2638™. B16-F10 (‘B16’) melonoma cell lines were purchased from ATCC® CRL-6475™. Cells were cultured in DMEM medium supplemented with 10% fetal bovine serum, and 100 I.U./mL penicillin/streptomycin at 37° C. in an atmosphere of 5% CO2 in air, and IMPACT-tested for pathogens at Research Animal Diagnostic Laboratory (RADIL) (Columbia, Mo.). Pathogen-free cells growing in an exponential growth phase were harvested and used for tumor inoculation.
(§3) Rat IgG2a isotype control were purchased from BioXcell (clone 2A3)(West Lebanon, N.H.).
(§4) For the second study, C57BL/6 mice were inoculated subcutaneously in the right lower flank with 0.1 ml of 1×10^6 B16 skin melanoma cells. When tumor bearing mice achieved a mean tumor volume of 100 to 150 mm^3, mice were randomly assigned to 1 of 4 treatment groups, n=10.

Series [5] has as its system CT26 colon carcinoma. The experiment in a line: In vivo tumor efficacy, CT26 model, PF-06463922 with anti-PD-L1 (Example 2). Details: species or system Balb/c mice. As to conditions: for Average tumor volume: anti-PD-L1 10 mg/kg i.p. every 3 days x3, PF-06463922 3 mg/kg orally once daily; for Effect on CT26 tumor growth: treatment started in tumors of 100-150 mm^3, compared with isotype.
Description: Both CT26 colon carcinoma and B16 melonoma cell lines have published mutanome and transcriptome data, with no known ALK fusion events or oncogenic mutations. Castle et al, BMC Genomics, 15:190 (13 Mar. 2014); Castle et al, CAN 11:3722 (11 Jan. 2012). […] The percentage of TGI was defined as 1-(Tumor volumnTreated/Tumor volumnisotype control)×100.
as §2, §3, §4

Turning to `CNC(=O)c1ccccc1Sc1ccc2c(/C=C/c3ccccn3)n[nH]c2c1` [Axitinib, axitinib], the “Thymidine incorporation(CPM)” value is on record as 437978 ± 5214.787 CPM in series [1] (μM: 0); 385672.3 ± 9004.015^ CPM in series [1] (μM: 1); 300379.3 ± 25594 CPM in series [1] (μM: 2); 291128.7 ± 31076.09^ CPM in series [1] (μM: 3); 407235 ± 52888.48 CPM in series [1] (μM: −1); 408592.3 ± 11690 CPM in series [1] (μM: −2). Further, the “Thymidine incorporation(CPM)” value in series [1] (μM: −3) is on record as 394950 ± 19054.05 CPM. In addition, the “Luciferase RLU (T cell viability)” value was found to be 92.63 ± 0.5221 RLU in series [2] (μM: 0); 89.79 ± 1.428 RLU in series [2] (μM: 1); 86.63 ± 0.8779 RLU in series [2] (μM: 2); 78.81 ± 3.223 RLU in series [2] (μM: 3); 91.35 ± 1.526 RLU in series [2] (μM: −1); 95.54 ± 3.15 RLU in series [2] (μM: −2). Besides, the “Luciferase RLU (T cell viability)” value in series [2] (μM: −3) is recorded as 97.36 ± 1.186 RLU. Further, in series [3], the “Toxicity in peripheral blood mononuclear cells” value is reported as “only minor toxicity effects”.
As to `C[C@H]1Oc2cc(cnc2N)-c2c(nn(C)c2C#N)CN(C)C(=O)c2ccc(F)cc21` [PF-06463922, (10R)-7-amino-12-fluoro-2,10,16-trimethyl-15-oxo-10,15,16,17-tetrahydro-2H-8,4-(metheno)pyrazolo[4,3-h][2,5,11]benzoxadiazacyclotetradecine-3-carbonitrile], the “Effect on T cell proliferation” value in series [1] (activated T cells, FIG. 1A) is reported as “did not have adverse effects on T cell proliferation”. For the same molecule, the “Thymidine incorporation(CPM)” value was 399866.7 ± 10135.82 CPM in series [1] (μM: 0); 364978.7 ± 37421.4 CPM in series [1] (μM: 1); 258875.3 ± 25269.1 CPM in series [1] (μM: 2); 94120.66 ± 2728.719 CPM in series [1] (μM: 3); 416579.3 ± 23523.21 CPM in series [1] (μM: −1); 411422.3 ± 13377.95 CPM in series [1] (μM: −2). Moreover, in series [1] (μM: −3), the “Thymidine incorporation(CPM)” value is given as 401448.3 ± 37205.07 CPM. For the same molecule, the “Effect on T cell viability” value in series [2] (FIG. 1B) was “did not result in dose-dependent decreases in T cell viability”. Further, the “Luciferase RLU (T cell viability)” value in series [2] (μM: 0) is recorded as 88.53 ± 0.7567 RLU; in series [2] (μM: 1), 89.118 ± 1.283 RLU; in series [2] (μM: 2), 88.6231 ± 1.573 RLU; in series [2] (μM: 3), 40.36 ± 9.736 RLU; in series [2] (μM: −1) it was 97.8625 ± 2.288 RLU; in series [2] (μM: −2), 95.86 ± 0.6202 RLU. The “Luciferase RLU (T cell viability)” value in series [2] (μM: −3) is on record as 98.17 ± 0.6606 RLU. The “animals with a complete response (tumor free)” value in series [4] was “no animals having a complete response”. The Average tumor volume in series [5] (Day 5) is 181.85 ± 12.6828 mm^3; in series [5] (Day 9), 253.14 ± 34.78 mm^3; in series [5] (Day 14), 548.44 ± 96.03 mm^3; in series [5] (Day 17), 962.02 ± 180.1961 mm^3; in series [5] (Day 21), 1696.96 ± 285.9975 mm^3. The “tumor growth inhibition (TGI)” value in series [5] (day 21 post tumor inoculation, relative to the isotype control) was 28.3%. Moreover, the “Effect on CT26 tumor growth” value is on record as “partially effective” in series [5] and “did not consistently inhibit CT26 tumor growth” in series [5] (listed as ALK inhibitor).
